Assay results: patent US8791126B2, “2-alkynyl-N9-propargyladenine and medicinal use thereof” (Yamasa Corporation, priority 2010, dated 2014)

What was measured:
adenosine A2a receptor = molecular target: T1, adenosine A2a receptor (Rattus norvegicus, UniProt P30543); test: Adenosine A2a receptor antagonist activity by the Magnus method (excised femoral vein); format: cell-based; details: femoral vein of male Wistar rats, contracted with 10^−5 M serotonin, relaxed with 10^−7 M 2-octynyladenosine; FIG. 1
T1 construct: the femoral vein was excised from male Wistar rats; from tissue; host or cells: femoral vein of male Wistar rats
T1 sequence (P30543 whole entry): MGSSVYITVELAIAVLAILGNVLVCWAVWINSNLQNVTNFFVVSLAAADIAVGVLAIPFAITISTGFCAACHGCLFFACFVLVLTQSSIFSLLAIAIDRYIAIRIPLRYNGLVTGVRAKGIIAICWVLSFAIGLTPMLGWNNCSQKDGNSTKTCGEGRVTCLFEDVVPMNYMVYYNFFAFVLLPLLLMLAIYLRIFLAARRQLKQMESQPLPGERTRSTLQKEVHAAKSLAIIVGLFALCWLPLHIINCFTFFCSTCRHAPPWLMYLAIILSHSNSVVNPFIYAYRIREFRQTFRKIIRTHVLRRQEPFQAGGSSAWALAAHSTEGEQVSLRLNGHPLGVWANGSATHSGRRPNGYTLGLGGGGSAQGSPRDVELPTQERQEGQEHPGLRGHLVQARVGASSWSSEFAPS
Protocol: In order to clarify the adenosine A2a receptor antagonist activity of the compound of the present invention, an evaluation by the Magnus method was conducted. The Magnus method is a method of evaluating the action of drugs using muscle contraction/relaxation as an index, and is used generally as a method for determining the antagonist activity.
In the evaluation, firstly, the femoral vein was excised from male Wistar rats. A Krebs-Henseleit solution aerated with O2 gas was filled in an organ bath and kept at 37° C., and the excised femoral vein was suspended therein under 0.5 g of resting tension. The contractile and relaxing response was determined via a pickup transducer.
In order to check the reactivity of the compound, firstly, the test compound was added dropwise in the organ bath. 10 minutes after the dropwise addition, serotonin was added dropwise in the organ bath such that the concentration thereof was 10^−5 M, to make the femoral vein contract. In a state where the contractile response was stable, 10^−7 M of an adenosine A2a receptor agonist, 2-octynyladenosine was administered to induce the relaxing response, and the inhibitory effect of the compound of the present invention and a positive control on the relaxing response was evaluated. Note that, in the representation of the results, the degree of the contraction at the time of addition of each substance was calculated, on condition that the degree of the relaxation when the compound of the present invention and the positive control were not added dropwise at all was designated as a control for the whole, and the degree of the relaxation for the control for the whole was set to be 100%.
As a compound of the present invention, the formula (3) compound, the formula (4) compound, the formula (5) compound, the formula (9) compound, and the formula (10) compound, which were described in the synthesis examples, were used. Note that the formula (9) compound is a publicly-known compound which has already been described in Patent Literature 2. In addition, as a positive control, 8-[(E)-2-(3,4-dimethoxyphenyl)vinyl]-1,3-diethyl-7-methyl-3,7-dihydro-1H-purin-2,6-dione (KW-6002) described in Patent Literature 1, which is an adenosine A2a receptor antagonist which has conventionally been deemed to have an effect on the treatment of Parkinson's syndrome, and the compound of the following formula (hereinafter referred to as “AT-compound”), which is shown in Patent Literature 3, compound No. 9 in [Table A], were used.

[1] = molecular target: human adenosine A2a receptor (Homo sapiens, UniProt P29274); test: Binding assay to human adenosine A2a receptor
human adenosine A2a receptor, sequence (P29274 whole entry): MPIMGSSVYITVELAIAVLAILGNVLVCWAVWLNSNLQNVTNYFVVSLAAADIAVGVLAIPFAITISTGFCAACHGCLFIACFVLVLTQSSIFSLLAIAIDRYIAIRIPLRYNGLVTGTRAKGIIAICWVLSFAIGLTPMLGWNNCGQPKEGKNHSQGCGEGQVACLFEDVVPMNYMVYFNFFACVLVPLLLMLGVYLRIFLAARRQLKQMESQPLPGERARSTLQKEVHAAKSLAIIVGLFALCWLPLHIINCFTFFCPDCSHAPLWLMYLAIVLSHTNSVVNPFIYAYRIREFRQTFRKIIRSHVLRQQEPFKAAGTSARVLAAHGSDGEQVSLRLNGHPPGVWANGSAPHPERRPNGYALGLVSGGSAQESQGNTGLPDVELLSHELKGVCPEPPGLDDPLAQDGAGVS
Protocol: In order to clarify the binding affinity of the compound of the present invention to a human adenosine A2a receptor, a binding assay for the human receptor and the compound of the present invention was conducted.

[2] = system: haloperidol-induced catalepsy; test: Haloperidol-induced catalepsy; format: in vivo; details: male ddY mice, haloperidol 1 mg/kg i.p., compound oral 0.03-10 mg/kg 1 hour later, scored 1, 3, 5, 7 hours; FIGS. 2-4
Protocol: Haloperidol is known to block dopamine receptors. This method is used generally as a method of evaluating the therapeutic effect of the therapeutic agents for Parkinson's syndrome, by using the effect of inducing catalepsy (when being made to take a certain posture or position of the limbs extrinsically, continuing to keep the posture as it is without willing to change it by oneself) caused by administration of haloperidol. The experiment was conducted by using 7 male ddY mice, 5-weeks old, per group. Haloperidol was suspended in 0.5% CMC, and then administered intraperitoneally to the mice at 1 mg/kg. In the study, as a test compound, the compounds each represented by the formula (4), the formula (5), the formula (10), the formula (11), the formula (12), the formula (13), or the formula (14) in the above synthesis examples were used, and as a positive control, KW-6002 (the test compound and KW-6002 were 0.03, 0.1, 0.3, 1, 3, 10 mg/kg) or L-DOPA (100 mg/kg)+benserazide (25 mg/kg) was used. The above 4 compounds were each suspended in 0.5% CMC, and orally administered to the mice 1 hour after the haloperidol administration. In addition, the case where only CMC was administered was designated as a control for the whole. After a lapse of 1, 3, 5, and 7 hours from the administration of the test compound, both forelimbs only, or both hindlimbs only, of a mouse were put in turn on an acrylic stand, height 4.5 cm, width 1.0 cm, and catalepsy was determined, and the state was scored as Table 2 below. [table]

[3] = Photostability study in solid state; format: physicochemical; details: under a fluorescent light for 3 weeks, HPLC
Protocol: Of the compounds of the present invention, the formula (4) compound, the formula (10) compound, and the formula (11) compound were evaluated for their photostability in solid state.
The study was conducted in accordance with “Guideline for the Photostability Testing of New Drug Substances and Products.” That is, each compound in solid state was placed under a fluorescent light statically for 3 weeks, and the residual ratio was calculated from the HPLC analysis results before and after the placement.

[4] = system: 6-OHDA-induced unilaterally substantia nigra lesioned rats; test: 6-OHDA-induced unilaterally substantia nigra lesioned rats, contralateral rotation; format: in vivo, rat; details: oral, administered singly, observed 5 hours, versus KW-6002; FIGS. 5-7
Protocol: 6-Hydroxydopamine (6-OHDA) is taken into neurons by dopamine reuptake transporters and acts as a neurotoxin, and is used for the selective denaturation and removal of dopaminergic neurons. This 6-OHDA was locally administered to the corpus striatum to induce the cell death of dopaminergic nerve and reduce dopamine, and thereby induce the symptoms of Parkinson's syndrome. In the study, 6-OHDA was injected into the right ventral tegmental area of male SD rats, 8-weeks old, and after 4 weeks, apomorphine (5 mg/kg, s.c.) was administered, and the animals which had shown a certain count of the counterclockwise rotation were selected. Using the model rats, the evaluation of the test compound as a therapeutic agent for Parkinson's syndrome was commenced.
Male SD rats, 8-weeks old, were anesthetized with pentobarbital (50 mg/kg), and the hairs were removed broadly from the occiput through the back of the neck, and then an ear bar was attached thereto, and the rats were fixed in a brain stereotaxic apparatus. The skin of the head was incised 3 to 4 cm with a scalpel, the periosteum was stripped off to expose the skull and the suture was checked. […] 4 weeks after the 6-OHDA administration, apomorphine (5 mg/kg, s.c.) was administered, and the count of the counterclockwise rotation for 5 minutes was counted from 5 minutes after the administration. […]

SMILES: C#CCn1cnc2c(N)nc(C#CCC3CCN(C(=O)Oc4ccc(C(=O)OC)cc4)CC3)nc21 [AT-compound, reference compound]
- inhibition of the relaxing response of the femoral vein (adenosine A2a receptor antagonist activity) (adenosine A2a receptor): no potent activity

SMILES: C#CCn1c(Br)nc2c(N)nc(C#CCCCCCC)nc21 [formula (4) compound, 8-bromo-2-(1-octyn-1-yl)-N^9-propargyladenine]
- Ki [1]: 0.581 nM
- score of catalepsy (improving effect on haloperidol-induced catalepsy) [2]: kept the score of catalepsy low, with a smaller dose than that of KW-6002
- residual ratio [3]: 99.0%
- count of the contralateral rotation [4]: exhibit an effect which is stronger and continuously increase the count of the contralateral rotation
- inhibition of the relaxing response of the femoral vein (adenosine A2a receptor antagonist activity) (adenosine A2a receptor): more potent activity

SMILES: C#CCn1c(-c2ccco2)nc2c(N)nc(C#CCCCCCC)nc21 [formula (5) compound, 8-(2-furyl)-2-(1-octyn-1-yl)-N^9-propargyl-adenine]
- score of catalepsy (improving effect on haloperidol-induced catalepsy) [2]: the catalepsy score was also kept low compared with that of L-DOPA or the formula (4) compound
- inhibition of the relaxing response of the femoral vein (adenosine A2a receptor antagonist activity) (adenosine A2a receptor): more potent activity

SMILES: C#CCn1c(Br)nc2c(N)nc(C#CC3(O)CCCCC3)nc21 [formula (10) compound, 8-bromo-2-[2-(1-hydroxycyclohexyl)-1-ethyn-1-yl]-N^9-propargyladenine]
- score of catalepsy (improving effect on haloperidol-induced catalepsy) [2]: kept the score of catalepsy low, with a smaller dose than that of KW-6002
- residual ratio [3]: 98.8%
- count of the contralateral rotation [4]: exhibit an effect which is stronger and continuously increase the count of the contralateral rotation
- inhibition of the relaxing response of the femoral vein (adenosine A2a receptor antagonist activity) (adenosine A2a receptor): more potent activity

SMILES: C#CCn1c(-c2ccco2)nc2c(N)nc(C#CC3(O)CCCCC3)nc21 [formula (11) compound, 8-(2-furyl)-2-[2-(1-hydroxycyclohexyl)-1-ethyn-1-yl]-N^9-propargyladenine]
- score of catalepsy (improving effect on haloperidol-induced catalepsy) [2]: exhibit an effect for a long time, with a smaller dose than that of the positive control KW-6002
- residual ratio [3]: 100.2%

SMILES: C#CCn1c(Cl)nc2c(N)nc(C#CCCCCCC)nc21 [formula (12) compound, 8-chloro-2-(1-octynyl)-N^9-propargyladenine]
- score of catalepsy (improving effect on haloperidol-induced catalepsy) [2]: exhibit an effect for a long time, with a smaller dose than that of the positive control KW-6002

SMILES: C#CCn1c(Cl)nc2c(N)nc(C#CC3(O)CCCCC3)nc21 [formula (13) compound, 8-chloro-2-[2-(1-hydroxycyclohexyl)-1-ethyn-1-yl]-N^9-propargyladenine]
- score of catalepsy (improving effect on haloperidol-induced catalepsy) [2]: exhibit an effect for a long time, with a smaller dose than that of the positive control KW-6002

SMILES: C#CCn1c(-n2nccn2)nc2c(N)nc(C#CCCCCCC)nc21 [formula (14) compound, 8-(1,2,3-triazol-2-yl)-2-(1-octynyl)-N^9-propargyladenine]
- score of catalepsy (improving effect on haloperidol-induced catalepsy) [2]: exhibit an effect for a long time, with a smaller dose than that of the positive control KW-6002
